Experimental data: ChEMBL document CHEMBL1212798, “High concentration of raltegravir in semen of HIV-infected men: results from a substudy of the EASIER-ANRS 138 trial” (2010)

Legend:
Assay type in all cases: functional
[1] = test system: Human immunodeficiency virus 1; assay: Antiviral activity against HIV1-infected in human assessed as decrease in plasma viral RNA level measured after 9 hrs post dose
[2] = test system: Human immunodeficiency virus 1; assay: Antiviral activity against HIV1-infected in human assessed as decrease in semen viral RNA level measured after 5 hrs post dose
[3] = test system: Human immunodeficiency virus 1; assay: Antiviral activity against HIV1

**Q.** Cc1nnc(C(=O)NC(C)(C)c2nc(C(=O)NCc3ccc(F)cc3)c(O)c(=O)n2C)o1 [RALTEGRAVIR] was tested. Which Activity [1] did it give?
**A.** Its Activity is 50 mL⁻¹.

**Q.** And the Activity [2]?
**A.** The Activity was 100 mL⁻¹.

**Q.** What about the Virucidal [3] of the same molecule?
**A.** The Virucidal was 14.6 ng/mL.
